Literature values in patent US20050049232A1, “Composition” (priority 2001, published 2005).

Test system: androgenic alopecia patients
Settings: topical solutions, alone or in combination with skin penetration enhancers such as DMSO

Nc1cc(N2CCCCC2)nc(N)[n+]1[O-] [minoxidil, 2,4-diamino-6-piperidino-pyrimidine-3-oxide]
patients with moderate to dense regrowth of hair: less than 40%
